The values below come from ChEMBL document CHEMBL1139158, “Prenyloxyphenylpropanoids as novel lead compounds for the selective inhibition of geranylgeranyl transferase I” (Bioorg Med Chem Lett, 2007).

The species named for assay [1] is Homo sapiens. The assay is described as follows: Inhibition of GGTase 1 at 100 uM.
Assay [2] in a line: Inhibition of GGTase 1. More on the design: species or system Homo sapiens.
The test system of assay [3] is Protein farnesyltransferase (Homo sapiens). As to the kind of experiment: Inhibition of FTase at 100 uM.

In general, inhibition refers to how much of the control response was suppressed. A higher inhibition goes with a strong effect. One may read the IC50 as the midpoint of a concentration-inhibition curve. Read a low IC50 as higher potency. For the molecule `CC(C)=CCC/C(C)=C/CC/C(C)=C/COc1ccc(/C=C/C(=O)O)cc1`, the inhibition in assay [1] is 93.5%. Further, the IC50 in assay [2] was 28 µM.
As for `COc1cc(/C=C/C(=O)O)ccc1OC/C=C(\C)CC/C=C(\C)CCC=C(C)C`, the inhibition in assay [1] was 83.9%; in assay [3], 11%. This molecule also returned an IC50 in assay [2] of 66 µM.
As to `COc1c(OC/C=C(\C)CCC=C(C)C)ccc2ccc(=O)oc12`, the inhibition in assay [1] stood at 34.2%; in assay [3], 15.5%.
On the same counts, the results for `COc1cc(/C=C/C(=O)O)ccc1OCC=C(C)C` are 31% and 9.3%.
For the molecule `CCOC(=O)/C=C/c1ccc(OC/C=C(\C)CCC=C(C)C)c(OC)c1`, the inhibition in assay [1] is 3%; in assay [3], 5.5%.
In assay [1], `CC(C)=CCC/C(C)=C/COc1ccc(C(=O)O)cc1` registered an inhibition of 0%.
In the case of `COc1cc(C(=O)O)ccc1OCC=C(C)C`, the results for the inhibition in assay [1] and in assay [3] were 0% and 2.4%, respectively.
For `COc1cc(C(=O)O)ccc1OC/C=C(\C)CCC=C(C)C`, the inhibition in assay [1] and in assay [3] was 0% each time.
